According to patent US20170266237A1, “Generation of Brown Adipose Tissue (BAT) from Mesenchymal Cells” (National University of Singapore, priority 2012, published 2017):

How the values were obtained:
Format in all cases: cell-based, human
UCP1 mRNA [1] = experiment: Quantitative PCR of UCP1 mRNA after forskolin stimulation of adipogenically induced MSCs; details: adipogenically induced MSCs stimulated with forskolin
Description: b) Adipogenic Induction of Mesenchymal Stem Cells (MSC). MSCs were seeded at an initial density of about 10.5×10^4 cells/cm^2 in well plates and grown to confluence. Adipogenic differentiation was induced via three cycles of 4 days of induction, followed by 3 days of maintenance. The basal media used in the differentiation process composed of high glucose Dulbecco's modified Eagle's medium (HG DMEM, Gibco) supplemented with Glutamax, 10% fetal bovine serum, 100 units/ml penicillin and […] streptomycin The standard white adipogenic induction media is supplemented with 3-isobutyl-1methylxanthine (0.5 mM), indomethacin (0.2 mM), dexamethasone (1 μM) and insulin (10 μg/ml). For brown adipocyte differentiation, cells were pre-treated with BMP7 (R&D Systems 354-BP, 125 ng/ml) 3 days prior to induction. […]
(§1) e) Quantitative PCR to assess expression of pan-adipocyte and brown adipocyte genes. […] Real time quantitative polymerase chain reactions (RT-PCR) were performed and monitored on a real-time PCR instrument (Stratagene) using Maxima™ SYBR Green/ROX qPCR Master Mix (K0222, Fermentas). […] Relative gene expression levels were determined using the ΔΔ-Ct method with the geometric mean of human TATA-box binding protein (TBP) and ribosomal phosphoprotein P0 (RPLP0) levels as an endogenous control.

[2] = test system: adipogenically induced mesenchymal stem cells; experiment: Nile Red adherent cytometry of cytoplasmic lipid accumulation / lipolysis; details: for lipolysis after isoproterenol (emptying of lipid droplets): 16 hrs of 5 μM isoproterenol, white and brown adipogenically induced MSCs
Description: b) Adipogenic Induction of Mesenchymal Stem Cells (MSC). MSCs were seeded at an initial density of about 10.5×10^4 cells/cm^2 in well plates and grown to confluence. Adipogenic differentiation was induced via three cycles of 4 days of induction, followed by 3 days of maintenance. The basal media used in the differentiation process composed of high glucose Dulbecco's modified Eagle's medium (HG DMEM, Gibco) supplemented with Glutamax, 10% fetal bovine serum, 100 units/ml penicillin and […] streptomycin The standard white adipogenic induction media is supplemented with 3-isobutyl-1methylxanthine (0.5 mM), indomethacin (0.2 mM), dexamethasone (1 μM) and insulin (10 μg/ml). For brown adipocyte differentiation, cells were pre-treated with BMP7 (R&D Systems 354-BP, 125 ng/ml) 3 days prior to induction. The brown adipogenic induction media is supplemented with 3-isobutyl-lmethylxanthine (0.5 mM), indomethacin (0.2 mM), dexamethasone (1 μM), insulin (10 μg/ml), triiodothyronine (1 nM) and Rosiglitazone (1 μM). Basal media alone was used during the maintenance phase. For conditions treated with macromolecular crowding (+MMC), a cocktail of macromolecules (+MMC), consisting of Ficoll 70 (37.5 mg/ml) and Ficoll 400 (25 mg/ml) was added to the basal media (High glucose DMEM, Gibco) throughout the differentiation process (during both induction and maintenance phases).
c) Stimulation with forskolin or isoproterenol. After the 3-week adipogenic differentiation, cells were incubated with 10 μM forskolin (Sigma) or 5 μM isoproterenol (Sigma) for 4 h or 16 h before analysis, to mimic nor-adrenergic stimulation in culture.
d) Nile Red Adherent Cytometry to assess area of cytoplasmic lipid accumulation. After 21 days (corresponding to three complete induction cycles), cell cultures were rinsed with PBS, fixed in 4% formaldehyde (10 min; RT) then co-stained for 30 min with Nile Red (Sigma-Aldrich; 5 μg/ml), for cytoplasmic lipid droplets and 4′,6-diamidino-2-phenylindole (DAPI; 0.5 μg/ml) for nuclear DNA as described previously. Adherent fluorescent cytometry was based on 9 sites per well imaged with a coolSNAP HQ camera attached to a Nikon TE2000 microscope at 2× magnification, covering 83% of total well area. Nile Red was viewed under a rhodamine filter [Ex572 nm/Em630 nm] while DAPI fluorescence was assessed with a DAPI filter [Ex350 nm/Em465 nm]. Measured Nile Red events were thresholded and measured by an image analysis software (MetaMorph 6.3v3). Extent of adipogenic differentiation was quantified by area of Nile Red fluorescence from thresholded events normalized to nuclei count based on detected DAPI fluorescence. End data corresponded to total area of lipid droplets present per well relative to cell number.

UCP1 mRNA [3] = experiment: Quantitative PCR of UCP1 mRNA expression in adipogenically induced MSCs; details: 3-week adipogenic induction of MSCs
Description: a) Mesenchymal Stem Cell Culture. Human bone-marrow derived mesenchymal stem cells (MSCs) were obtained commercially (Cambrex) at passage 2 (p2) and cultured in a basic culture medium composed of low glucose Dulbecco's modified Eagle's medium (LG DMEM, Gibco) supplemented with Glutamax, 10% fetal bovine serum, 100 units/ml penicillin and […] streptomycin. Cells were maintained at 37° C. in a humidified atmosphere of 5% CO2, with medium change twice per week. To prevent spontaneous differentiation, cells were maintained at subconfluent levels prior to being detached using TrypLE™ Express (Gibco), passaged at 1:3 and cultured to generate subsequent passages. Directed differentiation was carried out with cells between passage 6 (p6) and 8 (p8).
b) Adipogenic Induction of Mesenchymal Stem Cells (MSC). […]
as §1

Molecule: C=C[C@@]1(C)CC(=O)[C@]2(O)[C@@]3(C)[C@@H](O)CCC(C)(C)[C@@H]3[C@H](O)[C@H](OC(C)=O)[C@@]2(C)O1 [forskolin]
- additional UCP1 mRNA upregulation on forskolin stimulation (UCP1 mRNA [1]): 10 fold
- reduction of Nile Red positive area (factor) ([2]; brown induction protocol, 16 hrs after forskolin stimulus): 2.14
- reduction of hypothetical triglyceride volume (factor) ([2]; modeled as sphere, brown induced MSCs under crowding, after forskolin treatment): 3

Molecule: CC(C)NCC(O)c1ccc(O)c(O)c1 (stereo not drawn) [isoproterenol]
- lipolysis after isoproterenol (emptying of lipid droplets) [2]: leads to emptying of lipid droplets
- lipolysis after isoproterenol (emptying of lipid droplets) ([2]; listed as Isoproterenol): stronger lipolytic effect on adipocytes that had been differentiated under a BAT induction protocol

B1: BMP7: bone morphogenetic protein, R&D Systems 354-BP, 125 ng/ml pre-treatment 3 days prior to induction (protein, UniProt P18075 293-431, looked up)
Bone morphogenetic protein 7: STGSKQRSQNRSKTPKNQEALRMANVAENSSSDQRQACKKHELYVSFRDLGWQDWIIAPEGYAAYYCEGECAFPLNSYMNATNHAIVQTLVHFINPETVPKPCCAPTQLNAISVLYFDDSSNVILKKYRNMVVRACGCH
- effect on UCP1 mRNA expression (in words) (UCP1 mRNA [3]): only modestly increases
